Measured values taken from patent US20240025907A1, “QUINAZOLINE PAN-KRas INHIBITORS” (Mirati Therapeutics, Inc., priority 2022, published 2024).
Where two headings read alike, the source gives them in different places.

Tests used:
Assay type in all cases: cell-based
[1] = tested on: KRas-mediated Phosphorylation of ERK in AsPC-1 cells; experiment: Cisbio HTRF pERK assay, AsPC-1 cells; details: for IC50: 3 hrs compound, read-out: Inhibition (HTRF IC50 nM) of KRas-mediated Phosphorylation of ERK, AsPC-1; for inhibition at 0.1 µM: ASPC1, single point at 100 nM
[2] = tested on: KRas-mediated Phosphorylation of ERK in H727 cells; experiment: Cisbio HTRF pERK assay, H727 cells; details: for IC50: 3 hrs compound, read-out: Inhibition (HTRF IC50 nM) of KRas-mediated Phosphorylation of ERK, H727; for inhibition at 0.1 µM: Homo sapiens, NCI-H727, single point at 100 nM
[3] = tested on: KRas-mediated Phosphorylation of ERK in HCT116 cells; experiment: Cisbio HTRF pERK assay, HCT116 cells; details: for inhibition at 0.1 µM: Homo sapiens, HCT-116, HCT116 cells, single point at 100 nM
[4] = tested on: KRas-mediated Phosphorylation of ERK in A549 cells; experiment: Cisbio HTRF pERK assay, A549 cells; details: for IC50: A549 cells, 3 hrs compound, read-out: Inhibition (HTRF IC50 nM) of KRas-mediated Phosphorylation of ERK, A549; for inhibition at 0.1 µM: Homo sapiens, A549, A549 cells, single point at 100 nM
[5] = tested on: KRas-mediated Phosphorylation of ERK in H460 cells; experiment: Cisbio HTRF pERK assay, H460 cells; details: for inhibition at 0.1 µM: Homo sapiens, NCI-H460, H460 cells, single point at 100 nM
[6] = tested on: KRas-mediated Phosphorylation of ERK in H358 cells; experiment: Cisbio HTRF pERK assay, H358 cells; details: for IC50: H358 cells, 3 hrs compound, read-out: Inhibition (HTRF IC50 nM) of KRas-mediated Phosphorylation of ERK, H358; for inhibition at 0.1 µM: Homo sapiens, NCI-H358, H358 cells, single point at 100 nM

Row | SMILES | inhibition at 0.1 µM ([1]; Homo sapiens) [%] | inhibition at 0.1 µM [2] [%] | inhibition at 0.1 µM [3] [%] | inhibition at 0.1 µM [4] [%] | inhibition at 0.1 µM [5] [%] | inhibition at 0.1 µM [6] [%] | other results
1 | CN(C)C(=O)c1cc2n(n1)CCCN(c1nc(OC[C@@]34CCCN3C/C(=C\F)C4)nc3c(F)c(-c4ccc(F)c5sc(N)c(C#N)c45)c(Cl)cc13)C2 (atropisomer, axis not shown) [Example 194, 5-((S)-7-(2-amino-3-cyano-7-fluorobenzo[b]thiophen-4-yl)-6-chloro-8-fluoro-2-(((S,Z)-2-(fluoromethylene)tetrahydro-1H-pyrrolizin-7a(5H)-yl)methoxy)quinazolin-4-yl)-N,N-dimethyl-5,6,7,8-tetrahydro-4H-pyrazolo[1,5-a][1,4]diazepine-2-carboxamide] | – | – | – | – | – | – | IC50 ([1]; Homo sapiens, ASPC1, 3 h): 192 nM; IC50 [2]: 342 nM; IC50 ([3]; HCT116 cells, 3 hrs compound, read-out: Inhibition (HTRF IC50 nM) of KRas-mediated Phosphorylation of ERK, HCT116): 896 nM; IC50 [4]: 605 nM; IC50 ([5]; H460 cells, 3 hrs compound, read-out: Inhibition (HTRF IC50 nM) of KRas-mediated Phosphorylation of ERK, H460): 427 nM; IC50 [6]: 128 nM
2 | C[C@@]1(O)COCCN(c2nc(OC[C@@]34CCCN3C[C@H](F)C4)nc3c(F)c(-c4ccc(F)c5sc(N)c(C#N)c45)c(Cl)cc23)C1 (atropisomer, axis not shown; (aS)) [Example 193, 2-amino-4-((S)-6-chloro-8-fluoro-2-(((2R,7aS)-2-fluorotetrahydro-1H-pyrrolizin-7a(5H)-yl)methoxy)-4-((S)-6-hydroxy-6-methyl-1,4-oxazepan-4-yl)quinazolin-7-yl)-7-fluorobenzo[b]thiophene-3-carbonitrile] | – | – | – | – | – | – | IC50 [1]: 414 nM; IC50 [2]: 686 nM
3 | N#Cc1c(N)sc2c(F)ccc(-c3c(Cl)cc4c(N5CCCn6nnc(Cl)c6C5)nc(OC[C@@]56CCCN5C[C@H](F)C6)nc4c3F)c12 (single isomer, unassigned) [Example 196] | – | – | – | – | – | – | IC50 [1]: 531 nM; IC50 [2]: 2820 nM; IC50 [4]: 2420 nM; IC50 [6]: 472 nM
4 | N#Cc1c(N)sc2c(F)ccc(-c3c(Cl)cc4c(N5CCCn6nnc(Cl)c6C5)nc(OC[C@@]56CCCN5C[C@H](F)C6)nc4c3F)c12 (single isomer, unassigned) [Example 197] | – | – | – | – | – | – | IC50 [1]: 2 nM; IC50 [2]: 12 nM; IC50 [4]: 10 nM; IC50 [6]: 3 nM
5 | CCc1c(F)ccc2cc(O)cc(-c3c(F)cc4c(N5CCC[C@@](C)(O)C5)nc(OCC5(CN(C)C)CC5)nc4c3F)c12 [Example 11, (R)-1-(2-((1-((dimethylamino)methyl)cyclopropyl)methoxy)-7-((R)-8-ethyl-7-fluoro-3-hydroxynaphthalen-1-yl)-6,8-difluoroquinazolin-4-yl)-3-methylpiperidin-3-ol] | 91 | 49 | – | – | – | – | –
6 | CCc1c(F)ccc2cc(O)cc(-c3ccc4c(N5CCCC6(CCO6)C5)nc(OC[C@@]56CCCN5C[C@H](F)C6)nc4c3F)c12 (stereo partly drawn) [Example 71, 5-ethyl-6-fluoro-4-(8-fluoro-2-(((2R,7aS)-2-fluorohexahydro-1H-pyrrolizin-7a-yl)methoxy)-4-(1-oxa-6-azaspiro[3.5]nonan-6-yl)quinazolin-7-yl)naphthalen-2-ol] | 90 | 65 | 38 | 82 | 87 | 94 | –
7 | CCc1c(F)ccc2cc(O)cc(-c3ccc4c(N5CCCn6nc(C(=O)N7CCOCC7)c(Cl)c6C5)nc(OC[C@@]56CCCN5C[C@H](F)C6)nc4c3F)c12 [Example 73, (3-chloro-5-(7-(8-ethyl-7-fluoro-3-hydroxynaphthalen-1-yl)-8-fluoro-2-(((2R,7aS)-2-fluorohexahydro-1H-pyrrolizin-7a-yl)methoxy)quinazolin-4-yl)-5,6,7,8-tetrahydro-4H-pyrazolo[1,5-a][1,4]diazepin-2-yl)(morpholino)methanone] | 97 | 71 | 48 | 71 | – | 97 | –
8 | CCc1c(F)ccc2cc(O)cc(-c3ccc4c(N5CCCn6nc(C(=O)N(C)C)c(Cl)c6C5)nc(OC[C@@]56CCCN5C[C@H](F)C6)nc4c3F)c12 [Example 74, 3-chloro-5-(7-(8-ethyl-7-fluoro-3-hydroxynaphthalen-1-yl)-8-fluoro-2-(((2R,7aS)-2-fluorohexahydro-1H-pyrrolizin-7a-yl)methoxy)quinazolin-4-yl)-N,N-dimethyl-5,6,7,8-tetrahydro-4H-pyrazolo[1,5-a][1,4]diazepine-2-carboxamide] | 99 | 78 | 38 | 72 | – | 98 | –
9 | CCc1c(F)ccc2cc(O)cc(-c3ccc4c(N5CCCn6nc(C(=O)N(C)C)c(C)c6C5)nc(OC[C@@]56CCCN5C[C@H](F)C6)nc4c3F)c12 [Example 75, 5-(7-(8-ethyl-7-fluoro-3-hydroxynaphthalen-1-yl)-8-fluoro-2-(((2R,7aS)-2-fluorohexahydro-1H-pyrrolizin-7a-yl)methoxy)quinazolin-4-yl)-N,N,3-trimethyl-5,6,7,8-tetrahydro-4H-pyrazolo[1,5-a][1,4]diazepine-2-carboxamide] | 95 | 73 | 29 | 79 | – | 98 | –
10 | CCc1c(F)ccc2cc(O)cc(-c3c(F)cc4c(N5CCCn6nc(C(=O)N7CCN(C)CC7)cc6C5)nc(OC[C@@]56CCCN5C[C@H](F)C6)nc4c3F)c12 [Example 76, (5-(7-(8-ethyl-7-fluoro-3-hydroxynaphthalen-1-yl)-6,8-difluoro-2-(((2R,7aS)-2-fluorohexahydro-1H-pyrrolizin-7a-yl)methoxy)quinazolin-4-yl)-5,6,7,8-tetrahydro-4H-pyrazolo[1,5-a][1,4]diazepin-2-yl)(4-methylpiperazin-1-yl)methanone] | 90 | 43 | 16 | 42 | 31 | 90 | –
11 | CCc1c(F)ccc2cc(O)cc(-c3c(F)cc4c(N5CCCC6(CCO6)C5)nc(OC[C@@]56CCCN5C[C@H](F)C6)nc4c3F)c12 (stereo partly drawn) [Example 77, 4-(6,8-difluoro-2-(((2R,7aS)-2-fluorotetrahydro-1H-pyrrolizin-7a(5H)-yl)methoxy)-4-(1-oxa-6-azaspiro[3.5]nonan-6-yl)quinazolin-7-yl)-5-ethyl-6-fluoronaphthalen-2-ol] | 87 | 66 | 45 | 82 | 86 | 96 | –
12 | CCc1c(F)ccc2cc(O)cc(-c3c(F)cc4c(N5CCCn6nc(C(=O)NC)c(C)c6C5)nc(OC[C@@]56CCCN5C[C@H](F)C6)nc4c3F)c12 [Example 81, 5-(7-(8-ethyl-7-fluoro-3-hydroxynaphthalen-1-yl)-6,8-difluoro-2-(((2R,7aS)-2-fluorohexahydro-1H-pyrrolizin-7a-yl)methoxy)quinazolin-4-yl)-N,3-dimethyl-5,6,7,8-tetrahydro-4H-pyrazolo[1,5-a][1,4]diazepine-2-carboxamide] | – | – | 32 | 62 | 26 | 98 | –
13 | CCc1c(F)ccc2cc(O)cc(C3Cc4nc(OC[C@@]56CCCN5C[C@H](F)C6)nc(N5CCC[C@@](C)(O)C5)c4CO3)c12 (stereo partly drawn) [Example 85, (3R)-1-(7-(8-ethyl-7-fluoro-3-hydroxynaphthalen-1-yl)-2-(((2R,7aS)-2-fluorotetrahydro-1H-pyrrolizin-7a(5H)-yl)methoxy)-7,8-dihydro-5H-pyrano[4,3-d]pyrimidin-4-yl)-3-methylpiperidin-3-ol] | – | – | -12 | 21 | 16 | -7 | –
14 | CCc1c(F)ccc2cc(O)cc(C3Cc4nc(OC[C@@]56CCCN5C[C@H](F)C6)nc(N5C[C@@H]6C[C@H](C5)[C@H](O)C6)c4CO3)c12 (stereo partly drawn) [Example 86, (1R,5R,6R)-3-(7-(8-ethyl-7-fluoro-3-hydroxynaphthalen-1-yl)-2-(((2R,7aS)-2-fluorotetrahydro-1H-pyrrolizin-7a(5H)-yl)methoxy)-7,8-dihydro-5H-pyrano[4,3-d]pyrimidin-4-yl)-3-azabicyclo[3.2.1]octan-6-ol] | – | – | -12 | 0 | -1 | -14 | –
15 | CCc1c(F)ccc2cc(O)cc(C3Cc4nc(OC[C@@]56CCCN5C[C@H](F)C6)nc(N5CCCC6(C5)NC(=O)NC6=O)c4CO3)c12 (stereo partly drawn) [Example 87, 7-(7-(8-ethyl-7-fluoro-3-hydroxynaphthalen-1-yl)-2-(((2R,7aS)-2-fluorotetrahydro-1H-pyrrolizin-7a(5H)-yl)methoxy)-7,8-dihydro-5H-pyrano[4,3-d]pyrimidin-4-yl)-1,3,7-triazaspiro[4.5]decane-2,4-dione] | – | – | -5 | 16 | -8 | 30 | –
